# Laboratory results published in patent US20060063244A1, “Methods and composition for the production of orthogonal tRNA-aminoacyltRNA synthetase pairs” (The Scripps Research Institute, priority 2001, published 2006).
# Substitutions are numbered along the chain they refer to. Numbers in names are those of the source.
# B1: Methanobacterium thermoautotrophicum synthetase: leucyl-tRNA synthetase from Methanobacterium thermoautotrophicum (protein, UniProt O27552 1-937, looked up)
# Leucine--tRNA ligase: MDIERKWRDRWRDAGIFQADPDDREKIFLTVAYPYPSGAMHIGHGRTYTVPDVYARFKRMQGYNVLFPMAWHVTGAPVIGIARRIQRKDPWTLKIYREVHRVPEDELERFSDPEYIVEYFSREYRSVMEDMGYSIDWRREFKTTDPTYSRFIQWQIRKLRDLGLVRKGAHPVKYCPECENPVGDHDLLEGEGVAINQLTLLKFKLGDSYLVAATFRPETIYGATNLWLNPDEDYVRVETGGEEWIISRAAVDNLSHQKLDLKVSGDVNPGDLIGMCVENPVTGQEHPILPASFVDPEYATGVVFSVPAHAPADFIALEDLRTDHELLERYGLEDVVADIEPVNVIAVDGYGEFPAAEVIEKFGVRNQEDPRLEDATGELYKIEHARGVMSSHIPVYGGMKVSEAREVIADELKDQGLADEMYEFAERPVICRCGGRCVVRVMEDQWFMKYSDDAWKDLAHRCLDGMKIIPEEVRANFEYYIDWLNDWACSRRIGLGTRLPWDERWIIEPLTDSTIYMAYYTIAHRLREMDAGEMDDEFFDAIFLDDSGTFEDLREEFRYWYPLDWRLSAKDLIGNHLTFHIFHHSAIFPESGWPRGAVVFGMGLLEGNKMSSSKGNVILLRDAIEKHGADVVRLFLMSSAEPWQDFDWRESEVIGTRRRIEWFREFGERVSGILDGRPVLSEVTPAEPESFIGRWMMGQLNQRIREATRALESFQTRKAVQEALYLLKKDVDHYLKRVEGRVDDEVKSVLANVLHAWIRLMAPFIPYTAEEMWERYGGEGFVAEAPWPDFSDDAESRDVQVAEEMVQNTVRDIQEIMKILGSTPERVHIYTSPKWKWDVLRVAAEVGKLDMGSIMGRVSAEGIHDNMKEVAEFVRRIIRDLGKSEVTVIDEYSVLMDASDYIESEVGARVVIHSKPDYDPENKAVNAVPLKPAIYLE
# B2: T214Q: editing-domain point mutant of Methanobacterium thermoautotrophicum leucyl-tRNA synthetase (protein, UniProt O27552 1-937, looked up, variant T214Q)
# Leucine--tRNA ligase: B1 Leucine--tRNA ligase with T214Q
# B3: Methanococcus jannaschii synthetase: leucyl tRNA synthetase cloned from Methanococcus jannaschii (protein, UniProt Q58050 1-942, looked up)
# Leucine--tRNA ligase: MMVMIDFKEIEKKWQKRWEEAKIFEANPDDREKFFITAAFPYLNGVLHAGHLRTFTIPEVVARFQRMKNKNVLWTFGYHVTGTPILGLAELIKNRDEKTIWAYTELHGIPKEELLELTTPEKIVEYFSKKAEEAFKRMGFSLDWRRNFKTDDKVFNKFIEWQFHKLKEKGLIVKGSHPVRYCPRCDNPVEDHDILVGENATLVEYILIKFTTEDGCIMPMATLRPETVFGVTNVWVNPEATYVKAKVYLEKETENGIELIENGIWIMAKECAEKLKHQDRKIEIIEEFKGEQLINKKVKNPVTGKEVPILPAKFVKTNIGTGCVMSVPAHAPYDYIALRDLGLVDEIGLIPLINVPGYGKYPAKEIVEKMGIKSQEEEDKLEEATKKIYKDEFHKGVLNENCLDYEGIPVREIKDKLTKDLIDKGLAEIMYEFSEEKVICRCGTPCIVKMVKGQWFIKYSDEKWKELAHKCIDKMRFIPENLRQVFHEKIDWMKDKACVRRRGLGTKFPFEEGWVIESLSDSTIYPAYYTVAKYINQHNIKPEQLTLELFDYVFLGKGDVDKIAKETGIPKDIIEGMRKEFIYYYPVDWRCSAKDLIPNHLTFYIFNHVAIFPEEFWPRGIVVNGYVTIEGKKLSKSKGPVLPVLEVAEKFGADVGRFYITTCAELPQDADIKFKEMENTKKVLERLYLFAKEIAERRGETGEEFSYIDKWLLSRLYKAVKQYDEYMENFELRKAGILLYQLLDDLKWYRRRGGNNIRVLEEFLEVIIKLMMPFTPHLCEEMWEILGKEGFVSLAKFPEVKEEFINDEIEKGEEYLKAVMEDIKEIINVAKVQPKRIYLYTADDWKYEILKIIKENEGKTIKELMPIIMKNPEFRKYGKEIPKLVNQLIKLNAEIINEVEVLENAKEFLKKEVGVEDIIINGEDKANKKRVAIPFKPAIYLE
# Experiments:
# mutant TyrRS = target: T1, mutant TyrRS (Methanocaldococcus jannaschii, UniProt Q57834, D158A/E107T/L162P/N268S/Y32Q); test: Pyrophosphate-exchange assay of adenylate formation; type: biochemical, Methanococcus jannaschii
# T1 construct: His6 (C); made in house
# T1 sequence (Q57834 whole entry Y32Q/E107T/D158A/L162P/N268S): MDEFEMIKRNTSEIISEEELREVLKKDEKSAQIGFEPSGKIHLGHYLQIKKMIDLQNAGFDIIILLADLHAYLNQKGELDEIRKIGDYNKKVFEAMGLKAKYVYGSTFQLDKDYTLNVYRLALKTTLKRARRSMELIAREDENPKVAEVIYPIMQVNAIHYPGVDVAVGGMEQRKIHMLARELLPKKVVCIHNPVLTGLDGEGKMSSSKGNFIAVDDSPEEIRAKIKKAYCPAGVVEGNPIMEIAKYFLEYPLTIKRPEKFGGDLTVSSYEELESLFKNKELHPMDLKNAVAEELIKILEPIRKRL
# Protocol: (§1) Kinetics of adenylate formation of O-methyl-L-tyrosine and tyrosine with adenosine triphosphate (ATP) catalyzed by the mutant TyrRS were analyzed in vitro using a pyrophosphate-exchange assay at 37° C. For example, the mutant TyrRS gene with six histidines at its C-terminus was cloned into plasmid pQE-60 (Qiagen, CA) to generate plasmid pQE-mJYRS. Protein was purified by immobilized metal affinity chromatography according to manufacture's protocol (Qiagen, CA). Pyrophosphate (PPi) exchange was carried out at 37° C. in a reaction mixture containing 100 mM TrisHCl (pH7.5), 10 mM KF, 5 mM MgCl2, 2 mM ATP, 2 mM NaPPi, 0.1 mg/mL bovine serum albumin, approximately 0.01 μCi/μL [^32P]NaPPi, and various concentrations of tyrosine or O-methyl-L-tyrosine. Reactions were initiated with the addition of the purified mutant TyrRS, and aliquots were periodically taken and quenched with 0.2 M NaPPi, 7% perchloric acid, and 2% activated charcoal. The charcoal was filtered and washed with 10 mM NaPPi (pH2), then measured by scintillation counting to determine the ^32P levels in charcoal-adsorbed ATP. Values of kcat and Km were calculated by direct fitting of the Michaelis-Menten equation using nonlinear regression analysis.
# E. coli cells = test: LC/MS analysis of toluenized E. coli cells grown with unnatural amino acid; type: cell-based; settings: E. coli grown in the presence of the amino acid
# From the text: Generality of aminoacyl tRNA synthetase evolution. […] The enzyme can be evolved to accommodate a variety of functionalities in place of the phenol side chain of tyrosine and can do so with high selectivity. […] It was not possible to identify an enzyme variant that could accept the pCF unnatural amino acid. A second attempt to evolve a synthetase to accept the pCF amino acid was also unsuccessful.
# [1] = test system: N[C@@H](Cc1ccc(O)cc1)C(=O)O; test: Pyrophosphate-exchange assay of adenylate formation; type: biochemical, Methanococcus jannaschii; settings: other: mutant TyrRS, 37° C.
# Protocol: as §1
# [2] = test system: COc1ccc(C[C@H](N)C(=O)O)cc1; test: as above; type: biochemical, Methanococcus jannaschii; settings: other: mutant TyrRS, 37° C.
# Protocol: as §1
# [3] = test system: yeast PheRS / Escherichia coli PheRS; settings: cited from earlier work
# Escherichia coli = test: Effect on growth of Escherichia coli host cells; type: cell-based; settings: 1 mM added to medium
# amber nonsense codon = test: Fidelity of translation by analysis of dihydrofolate reductase containing the unnatural amino acid; type: cell-based, Escherichia coli; settings: incorporation in response to amber nonsense codon
# From the text: A unique transfer RNA (tRNA)-aminoacyl tRNA synthetase pair has been generated that expands the number of genetically encoded amino acids in Escherichia coli. When introduced into Escherichia coli, this pair leads to the in vivo incorporation of the synthetic amino acid O-methyl-L-tyrosine, added exogenously to the growth medium, into protein in response to an amber nonsense codon. The fidelity of translation is greater than 99%, as determined by analysis of dihydrofolate reductase containing the unnatural amino acid. This approach provides a general method for increasing the genetic repertoire of living cells to include a variety of amino acids with novel structural, chemical and physical properties not found in the common twenty amino acids.
# [4] = test system: valine position in the native protein; settings: edit-defective ValRS strain grown with Abu; cited from earlier work
# [5] = test system: Escherichia coli total tRNA / purified tRNA from Halobacterium; test: In vitro aminoacylation by archaeal leucyl-tRNA synthetases; type: biochemical
# Protocol: The next step involved determination of a synthetase that charges the suppressor tRNA without interacting with host tRNA. The two chosen systems, Methanobacterium thermoautotrophicum and Methanococcus jannaschii were expressed, and aminoacylation was performed in vitro on purified tRNA from Halobacterium as a positive control, and for Escherichia coli total tRNA.
# [6] = In vitro aminoacylation with leucine and methionine by editing-domain mutants of Methanobacterium thermoautotrophicum RS; type: biochemical
# From the text: Next, point mutations were made in the editing domain. The catalytic core of the editing domain is well conserved across species and even for different amino acids, at least for the family of branched chain amino acids. Several of these conserved sites have previously been mutated, for example a T→P mutation, and found to knock out editing function. Mutants of Methanobacterium thermoautotrophicum RS were constructed that were similar to several known mutants, and also a 20 member NNK library derived from T214 was made. Proteins were expressed and examined in vitro for aminoacylation with leucine and methionine. None of the previously identified mutations were transferable to our system, but a desirable mutation was identified from the T214 library.
molecule,measurement,setting,value
N[C@@H](Cc1ccc(O)cc1)C(=O)O [tyrosine],Km relative to O-methyl-L-tyrosine,mutant TyrRS,approximately 13 fold
same,kcat relative to O-methyl-L-tyrosine,mutant TyrRS,eight fold less
"N[C@@H](Cc1ccc(C(=O)O)cc1)C(=O)O [pCF, p-Carboxyl-Phenylalanine]",detection in cells by LC/MS,E. coli cells,could not be detected
mutant TyrRS (Methanocaldococcus jannaschii DSM 2661; D158A/E107T/L162P/N268S/Y32Q),Km,[1],5.833 ± 0.902 mM
same,kcat,[1],1.8±0.2×10^−3 s^−1
same,Km,[2],0.443 ± 0.093 mM
same,kcat,[2],14±1×10^−3 s^−1
"N[C@@H](Cc1ccc(F)cc1)C(=O)O [p-F-Phe, p-fluorophenylalanine]",share found at the Phe codon positions,[3],7%
same,share at the mutagenesis site,[3]; excess p-F-Phe in growth media,64-75%
COc1ccc(C[C@H](N)C(=O)O)cc1 [O-methyl-L-tyrosine],kcat/Km relative to tyrosine,mutant TyrRS,about 100 fold
same,effect on growth rate of Escherichia coli,Escherichia coli,does not significantly affect the growth rate
same,fidelity of translation,amber nonsense codon,greater than 99%
"CCC(N)C(=O)O (centres unmarked) [Abu, aminobutyrate]",valines replaced at each valine position,[4],about 24%
B1,charging of Escherichia coli total tRNA versus Halobacterium tRNA,[5],specific towards the Halobacterium tRNA
B2,charging with leucine,[6],capable of charging with leucine
same,charging with methionine,[6],capable of charging methionine
B3,charging of Escherichia coli total tRNA versus Halobacterium tRNA,[5],able to effectively charge Escherichia coli tRNA
